biological target: T1, Human full-length Hsp90 (Homo sapiens, UniProt P08238); test: Fluorescence polarization assay (competitive binding to HSP90, probe RBT0045864-FAM); settings: not given
T1 construct: E. coli expressed human full-length HSP90 protein, purified >95%; made in house; host or cells: E. coli
Procedure: Fluorescence Polarization Assay
Fluorescence polarization {also known as fluorescence anisotropy} measures the rotation of a fluorescing species in solution, where the larger molecule the more polarized the fluorescence emission. When the fluorophore is excited with polarized light, the emitted light is also polarized. The molecular size is proportional to the polarization of the fluorescence emission.
The fluoroscein-labelled probe—RBT0045864-FAM—
Test compound is added to the assay plate, left to equilibrate and the anisotropy measured again. Any change in anisotropy is due to competitive binding of compound to HSP90, thereby releasing probe.
Stored at room temperature. • 3) BSA (bovine serum albumen) 10 mg/ml (New England Biolabs #B9001S) • 4) 20 mM probe in 100% DMSO stock concentration. Stored in the dark at RT. Working concentration is 200 nM diluted in AR water and stored at 4° C. […] Protocol • 1) Add 100 μl 1× buffer to wells 11A and 12A (=FP BLNK) • 2) Prepare assay mix—all reagents are kept on ice with a lid on the bucket as the probe is light-sensitive.
This gives 2.5 mM {50×} stock cpd—assuming cpds 20 mM. • 4) Repeat for wells A2 to A10. Control in columns 11 and 12. • 5) Transfer 5 μl from row A to row B—not column 12. Mix well. • 6) Transfer 5 μl from row B to row C. […] Add 2 μl of 100 mM standard cpd to wells B12-H12 {is positive control} • 13) The Z′ factor is calculated from zero controls and positive wells.

T1 sequence (P08238 whole entry): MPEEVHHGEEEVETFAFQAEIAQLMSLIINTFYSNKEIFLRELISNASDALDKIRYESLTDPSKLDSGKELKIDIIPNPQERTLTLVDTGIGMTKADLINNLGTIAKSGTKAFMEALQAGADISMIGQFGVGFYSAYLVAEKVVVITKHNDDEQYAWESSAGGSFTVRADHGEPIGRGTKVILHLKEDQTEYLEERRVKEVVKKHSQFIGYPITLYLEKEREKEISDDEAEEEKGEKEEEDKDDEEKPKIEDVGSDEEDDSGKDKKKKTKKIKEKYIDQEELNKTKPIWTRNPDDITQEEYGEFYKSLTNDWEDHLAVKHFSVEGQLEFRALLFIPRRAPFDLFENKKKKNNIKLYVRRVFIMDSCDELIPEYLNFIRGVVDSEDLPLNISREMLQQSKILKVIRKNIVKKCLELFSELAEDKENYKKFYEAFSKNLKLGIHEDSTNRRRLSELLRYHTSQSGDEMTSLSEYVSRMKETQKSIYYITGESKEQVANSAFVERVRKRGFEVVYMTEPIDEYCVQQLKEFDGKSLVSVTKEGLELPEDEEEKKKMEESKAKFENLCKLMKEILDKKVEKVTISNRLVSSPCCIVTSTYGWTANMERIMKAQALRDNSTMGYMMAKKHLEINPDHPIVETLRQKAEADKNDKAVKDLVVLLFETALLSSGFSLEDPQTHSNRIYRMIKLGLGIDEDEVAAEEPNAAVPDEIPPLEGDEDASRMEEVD

Structure (SMILES) | IC50 [µM]
CCNC(=O)c1cc2c(-c3ccc(Cl)cc3)nc(N)nc2s1 [Example 173] | < 10

same assay, conditions: fluorescence polarization assay, activity range; read-out: Hsp90 FP IC50

IC50 [µM] | Structure (SMILES)
< 10 | Nc1nc(-c2ccc(Cl)cc2Cl)c2cc(C(=O)NCc3cccnc3)sc2n1 [Example 123]
< 10 | Nc1nc(-c2ccc(Cl)cc2Cl)c2cc(C(=O)NCc3cccs3)sc2n1 [Example 124]
< 10 | Nc1nc(-c2ccc(Cl)cc2Cl)c2cc(C(=O)NCc3ccco3)sc2n1 [Example 125]
< 10 | COCCCNC(=O)c1cc2c(-c3ccc(Cl)cc3Cl)nc(N)nc2s1 [Example 126]
< 10 | Nc1nc(-c2ccc(Cl)cc2Cl)c2cc(C(=O)NC(CO)CO)sc2n1 [Example 127]
< 10 | Nc1nc(-c2ccc(Cl)cc2Cl)c2cc(C(=O)NCC(O)CO)sc2n1 (stereo not shown) [Example 128]
< 10 | CCN1CCCC1CNC(=O)c1cc2c(-c3ccc(Cl)cc3Cl)nc(N)nc2s1 (stereo not shown) [Example 129]
< 10 | Nc1nc(-c2ccc(Cl)cc2Cl)c2cc(C(=O)NCCS(N)(=O)=O)sc2n1 [Example 130]
< 10 | NC(=O)CCNC(=O)c1cc2c(-c3ccc(Cl)cc3Cl)nc(N)nc2s1 [Example 131]
< 10 | Nc1nc(-c2ccc(Cl)cc2Cl)c2cc(C(=O)NCC3CCCO3)sc2n1 (stereo not shown) [Example 132]
< 10 | CC(C)NC(=O)c1cc2c(-c3ccc(Cl)cc3Cl)nc(N)nc2s1 [Example 133]
< 10 | Nc1nc(-c2ccc(Cl)cc2Cl)c2cc(C(=O)NCC(F)(F)F)sc2n1 [Example 134]
< 10 | Nc1nc(-c2ccc(Cl)cc2Cl)c2cc(C(=O)Nc3ccc(F)cc3)sc2n1 [Example 135]
< 10 | Nc1nc(-c2ccc(Cl)cc2Cl)c2cc(C(=O)NCCO)sc2n1 [Example 136]
< 10 | CN1CCC(NC(=O)c2cc3c(-c4ccc(Cl)cc4Cl)nc(N)nc3s2)CC1 [Example 137]
< 10 | C[C@@H](NC(=O)c1cc2c(-c3ccc(Cl)cc3Cl)nc(N)nc2s1)c1ccccc1 [Example 138]
< 10 | C[C@H](NC(=O)c1cc2c(-c3ccc(Cl)cc3Cl)nc(N)nc2s1)c1ccccc1 [Example 139]
< 10 | CC(C)(NC(=O)c1cc2c(-c3ccc(Cl)cc3Cl)nc(N)nc2s1)c1ccccc1 [Example 140]
< 10 | Nc1nc(-c2ccc(Cl)cc2Cl)c2cc(C(=O)NCc3ccncc3)sc2n1 [Example 141]
< 10 | Nc1nc(-c2ccc(Cl)cc2Cl)c2cc(C(=O)Nc3nccs3)sc2n1 [Example 142]

IC50 [µM] | Structure (SMILES)
< 10 | Nc1nc(-c2ccc(Cl)cc2Cl)c2cc(C(=O)Nc3cc[nH]n3)sc2n1 [Example 143]
< 10 | Nc1nc(-c2ccc(Cl)cc2Cl)c2cc(C(=O)NCCCS(=O)(=O)O)sc2n1 [Example 144]
< 10 | Nc1nc(-c2ccc(Cl)cc2Cl)c2cc(C(=O)NCCCN3CCCC3)sc2n1 [Example 145]
< 10 | Nc1nc(-c2ccc(Cl)cc2Cl)c2cc(C(=O)NCCCn3ccnc3)sc2n1 [Example 146]
> 10 | CCOC(=O)c1cc2c(-c3c(Cl)cccc3OC)nc(N)nc2s1 [Example 147]
< 10 | CCOC(=O)c1cc2c(-c3ccc(C#N)cc3Cl)nc(N)nc2s1 [Example 148]
< 10 | CCNC(=O)c1cc2c(-c3cc(C)c(Br)cc3C)nc(N)nc2s1 [Example 149]
< 10 | CCNC(=O)c1cc2c(-c3cc(C)c(C)cc3C)nc(N)nc2s1 [Example 150]
< 10 | CCNC(=O)c1cc2c(-c3ccc(Cl)cc3C)nc(N)nc2s1 [Example 151]
< 10 | CCNC(=O)c1cc2c(-c3ccc(C)cc3Cl)nc(N)nc2s1 [Example 152]
< 10 | Nc1nc(-c2ccc(Cl)cc2Cl)c2cc(C(=O)NC3CCCC3)sc2n1 [Example 153]
< 10 | Nc1nc(-c2ccc(Cl)cc2Cl)c2cc(C(=O)NCc3ccccn3)sc2n1 [Example 154]
< 10 | Nc1nc(-c2ccc(Cl)cc2Cl)c2cc(C(=O)NC3CC3)sc2n1 [Example 155]
< 10 | Nc1nc(-c2ccc(Cl)cc2Cl)c2cc(C(=O)NCCc3ccccn3)sc2n1 [Example 156]
< 10 | CN1CCCC1CCNC(=O)c1cc2c(-c3ccc(Cl)cc3Cl)nc(N)nc2s1 (stereo not shown) [Example 157]
< 10 | Nc1nc(-c2ccc(Cl)cc2Cl)c2cc(C(=O)NC3CN4CCC3CC4)sc2n1 (stereo not shown) [Example 158]
< 10 | Nc1nc(-c2ccc(Cl)cc2Cl)c2cc(C(=O)N3CCC(N)C3)sc2n1 (stereo not shown) [Example 159]
< 10 | C[C@H](NC(=O)c1cc2c(-c3ccc(Cl)cc3Cl)nc(N)nc2s1)C(N)=O [Example 160]
< 10 | CC(C)C[C@H](NC(=O)c1cc2c(-c3ccc(Cl)cc3Cl)nc(N)nc2s1)C(N)=O [Example 161]
< 10 | NC(=O)[C@H](CO)NC(=O)c1cc2c(-c3ccc(Cl)cc3Cl)nc(N)nc2s1 [Example 162]

IC50 [µM] | Structure (SMILES)
< 10 | NC(=O)[C@H](Cc1ccc(O)cc1)NC(=O)c1cc2c(-c3ccc(Cl)cc3Cl)nc(N)nc2s1 [Example 163]
< 10 | NC(=O)[C@H](Cc1cnc[nH]1)NC(=O)c1cc2c(-c3ccc(Cl)cc3Cl)nc(N)nc2s1 [Example 164]
< 10 | CSCC[C@H](NC(=O)c1cc2c(-c3ccc(Cl)cc3Cl)nc(N)nc2s1)C(N)=O [Example 166]
< 10 | C=Cc1ccc(-c2nc(N)nc3sc(C(=O)OCC)cc23)c(C)c1 [Example 168]
< 10 | CCOC(=O)c1cc2c(-c3ccc(Cl)cc3)nc(N)nc2s1 [Example 169]
< 10 | CCNC(=O)c1cc2c(-c3cc(C=O)ccc3C)nc(N)nc2s1 [Example 170]
< 10 | C=Cc1ccc(-c2nc(N)nc3sc(C(=O)NCC)cc23)c(C)c1 [Example 171]
< 10 | CCNC(=O)c1cc2c(-c3ccc(C#N)cc3Cl)nc(N)nc2s1 [Example 172]
< 10 | CCOC(=O)c1cc2c(-c3cc(C=O)c(C)cc3C)nc(N)nc2s1 [Example 174]
< 10 | CCOC(=O)c1cc2c(-c3ccc(CC)cc3Cl)nc(N)nc2s1 [Example 175]
< 10 | C=CCc1ccc(-c2nc(N)nc3sc(C(=O)NCC)cc23)c(C)c1 [Example 176]
< 10 | CCNC(=O)c1cc2c(-c3ccc(CC)cc3Cl)nc(N)nc2s1 [Example 177]
< 10 | CCOC(=O)c1cc2c(-c3cc(Cl)ccc3C)nc(N)nc2s1 [Example 178]
< 10 | CCOC(=O)c1cc2c(-c3cc(C(=O)OC)ccc3C)nc(N)nc2s1 [Example 179]
< 10 | CCNC(=O)c1ccc(C)c(-c2nc(N)nc3sc(C(=O)NCC)cc23)c1 [Example 180]
< 10 | CCCNC(=O)c1ccc(C)c(-c2nc(N)nc3sc(C(=O)OCC)cc23)c1 [Example 181]
> 10 | CCCNC(=O)c1ccc(C)c(-c2nc(N)nc3sc(C(=O)NCc4ccccc4)cc23)c1 [Example 182]
< 10 | CCCNC(=O)c1ccc(C)c(-c2nc(N)nc3sc(C(=O)NC4CC4)cc23)c1 [Example 183]
< 10 | CCOC(=O)c1cc2c(-c3ccc(O)cc3C)nc(N)nc2s1 [Example 184, 2-Amino-4-(4-hydroxy-2-methyl-phenyl)-thieno[2,3-d]pyrimidine-6-carboxylic acid ethyl ester]
< 10 | CCCOc1ccc(-c2nc(N)nc3sc(C(=O)OCC)cc23)c(C)c1 [Example 185, 2-Amino-4-(2-methyl-4-propoxy-phenyl)-thieno[2,3-d]pyrimidine-6-carboxylic acid ethyl ester]

From patent US8642594B2, “Substituted thieno[2,3-d]pyrimidines as HSP90 inhibitors” (Vernalis (R&D) Limited, priority 2003, dated 2014)
